The values below come from US20080207621A1, “SOLUBLE EPOXIDE HYDROLASE INHIBITORS” (Arete Therapeutics, Inc., priority 2006, published 2008).

Data set [1] relates to soluble epoxide hydrolase (sEH). The experiment in a line: Fluorescent assay for mouse and human soluble epoxide hydrolase (CMNPC substrate). Format: biochemical. To be noted: substrate CMNPC 5 μM, 30° C. The text has this: Fluorescent Assay for Mouse and Human Soluble Epoxide Hydrolase Recombinant mouse sEH (MsEH) and human sEH (HsEH) were produced in a baculovirus expression system as previously reported. Grant et al., J. Biol. Chem., 268:17628-17633 (1993); Beetham et al., Arch. Biochem. Biophys., 305:197-201 (1993). The expressed proteins were purified from cell lysate by affinity chromatography. Wixtrom et al., Anal. Biochem., 169:71-80 (1988). Protein concentration was quantified using the Pierce BCA assay using bovine serum albumin as the calibrating standard. The preparations were at least 97% pure as judged by SDS-PAGE and scanning densitometry. They contained no detectable esterase or glutathione transferase activity which can interfere with the assay. The assay was also evaluated with similar results in crude cell lysates or homogenate of tissues. The IC50s for each inhibitor were determined according to the following procedure: […] Jones P. D. et. al.; Analytical Biochemistry 2005; 343: pp. 66-75) Bis/Tris HCl 25 mM pH 7.0 containing 0.1 mg/mL of BSA (buffer […] at 0.25 mM in DMSO. Mother solution of enzyme in buffer A (Mouse sEH at 6 μg/mL and Human sEH at 5 μg/mL). Inhibitor dissolved in DMSO at the appropriate concentration. In a black 96 well plate, fill all the wells with 150 μL of buffer A. Add 2 μL of DMSO in well A2 and A3, and then add 2 μL of inhibitor solution in A1 and A4 through A12. Add 150 μL of buffer A in row A, then mix several time and transfer 150 μL to row B. Repeat this operation up to row H. The 150 μL removed from row H is discarded. Add 20 μL of buffer A in column 1 and 2, then add 20 μL of enzyme solution to column 3 to 12. Incubate the plate for 5 minutes in the plate reader at 30° C. During incubation prepare the working solution of substrate by mixing 3.68 mL of buffer A (4×0.920 mL) with 266 μL (2×133 μL) of substrate solution). At t=0, add 30 μL of working substrate solution with multi-channel pipette labeled “Briggs 303” and start the reading ([S]final: 5 μM). Read with ex: 330 nm (20 nm) and em: 465 nm (20 nm) every 30 second for 10 minutes. The velocities are used to analyze and calculate the IC50s.

Take `NS(=O)(=O)c1ccc(NC(=O)NC23CC4CC(CC(C4)C2)C3)cc1` [Compound 1, 4-(3-Adamantan-1-yl-ureido)-benzenesulfonamide]: in data set [1] (Conc. 500 nM), the “% Inhibition” value was 92%.
As for `NS(=O)(=O)c1cccc(NC(=O)NC23CC4CC(CC(C4)C2)C3)c1` [Compound 2, 3-(3-Adamantan-1-yl-ureido)-benzenesulfonamide], the “% Inhibition” value in data set [1] (Conc. 500 nM) amounted to 94%.
For the compound `NS(=O)(=O)c1cccc(NC(=O)Nc2ccc(C(F)(F)F)cc2)c1` [Compound 4, 3-[3-(4-Trifluoromethyl-phenyl)-ureido]-benzenesulfonamide], the “% Inhibition” value in data set [1] (Conc. 50 nM) amounted to 75%.
On the same count and under the same terms, with `O=C(Nc1ccc(C(F)(F)F)cc1)Nc1ccc(S(=O)(=O)NCCN2CCOCC2)cc1` [Compound 7, N-(2-Morpholin-4-yl-ethyl)-4-[3-(4-trifluoromethyl-phenyl)-ureido]-benzenesulfonamide] the figure was 91%; with `O=C(Nc1ccc(C(F)(F)F)cc1)Nc1cccc(S(=O)(=O)NCCN2CCOCC2)c1` [Compound 8, N-(2-Morpholin-4-yl-ethyl)-3-[3-(4-trifluoromethyl-phenyl)-ureido]-benzenesulfonamide], 94%.
In turn, `CNS(=O)(=O)c1cccc(NC(=O)Nc2ccc(C(F)(F)F)cc2)c1` [Compound 12, N-methyl-3-[3-(4-trifluoromethylphenyl)ureido]benzenesulfonamide] registered a melting point of 238 to 240 °C. In addition, in data set [1] (Conc. 50 nM), the “% Inhibition” value is recorded as 85%.
On to `CC(C)N1CCN(S(=O)(=O)c2ccc(NC(=O)Nc3ccc(C(F)(F)F)cc3)cc2)CC1` [Compound 15, 1-[4-(4-Isopropyl-piperazine-1-sulfonyl)-phenyl]-3-(4-trifluoromethyl-phenyl)-urea], for which, in data set [1] (Conc. 50 nM), the “% Inhibition” value is recorded as 90%.
Turning to `CC(C)N1CCN(S(=O)(=O)c2cccc(NC(=O)Nc3ccc(C(F)(F)F)cc3)c2)CC1` [Compound 16, 1-[3-(4-Isopropyl-piperazine-1-sulfonyl)-phenyl]-3-(4-trifluoromethyl-phenyl)-urea], the “% Inhibition” value in data set [1] (Conc. 50 nM) came to 92%.
The compound `CC(=O)NS(=O)(=O)c1cccc(NC(=O)Nc2ccc(C(F)(F)F)cc2)c1` [Compound 20, N-(3-(3-(4-(trifluoromethyl)phenyl)ureido)phenylsulfonyl)aceta-mide] came in with a melting point of 115 to 121 °C. In data set [1] (Conc. 5000 nM), the “% Inhibition” value worked out at 85%.
Compound `O=C(O)CCCNS(=O)(=O)c1ccc(NC(=O)Nc2ccc(C(F)(F)F)cc2)cc1` [Compound 23, 4-{4-[3-(4-Trifluoromethyl-phenyl)-ureido]-benzenesulfonylamino}-butyric acid] came in with a melting point of 172 to 175 °C. In addition, the “% Inhibition” value in data set [1] (Conc. 50 nM) came out at 80%.
Turning to `O=C(Nc1ccc(C(F)(F)F)cc1)Nc1ccc(S(=O)(=O)Nc2ccc(Cl)cc2)cc1` [Compound 25, N-(4-Chloro-phenyl)-4-[3-(4-trifluoromethyl-phenyl)-ureido]-benzenesulfonamide], in data set [1] (Conc. 50 nM), the “% Inhibition” value is listed as 99%.
Regarding `O=C(Nc1ccc(C(F)(F)F)cc1)Nc1cccc(S(=O)(=O)Nc2ccc(Cl)cc2)c1` [Compound 26, N-(4-Chloro-phenyl)-3-[3-(4-trifluoromethyl-phenyl)-ureido]-benzenesulfonamide], the melting point lay within 196 to 198 °C. Further, in data set [1] (Conc. 50 nM), the “% Inhibition” value turned out to be 99%.
Regarding `O=C(Nc1ccc(C(F)(F)F)cc1)Nc1ccc(S(=O)(=O)N2CCOCC2)cc1` [Compound 27, 1-[4-(Morpholine-4-sulfonyl)-phenyl]-3-(4-trifluoromethyl-phenyl)-urea], the “% Inhibition” value in data set [1] (Conc. 50 nM) is given as 95%.
Still for that read-out and setting: under `O=C(Nc1ccc(C(F)(F)F)cc1)Nc1cccc(S(=O)(=O)N2CCOCC2)c1` [Compound 28, 1-[3-(Morpholine-4-sulfonyl)-phenyl]-3-(4-trifluoromethyl-phenyl)-urea] stands 93%.

As a reminder, the % Inhibition is the relative decrease from the control value, in per cent. By melting point is commonly meant the temperature of the solid-liquid transition.
